Measurements taken from PubChem BioAssay (NCI).
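48-hour exposure; five concentrations; linearly interpolated endpoints. GI50 is the concentration that inhibits growth by half. TGI: total growth inhibition.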

Legend:
Assay in all cases: DTP human tumour cell line panel, 48 h; in the data active means GI50 below about 0.43 µM; inactive means the rest
[1] = system: MALME-3M melanoma
[2] = system: M14 melanoma
[3] = system: BT-549 breast
[4] = system: HT29 colon
[5] = system: EKVX NSCLC
[6] = system: NCI-H23 lung
[7] = system: OVCAR-4 ovarian
[8] = system: TK-10 renal
[9] = system: RPMI-8226 leukemia
[10] = system: KM12 colon
[11] = system: HCT-15 colon
[12] = system: OVCAR-3 ovarian
[13] = system: A549 NSCLC
[14] = system: A498 renal
[15] = system: U251 CNS
[16] = system: SK-MEL-5 melanoma
[17] = system: SNB-19 CNS
[18] = system: OVCAR-5 ovarian
[19] = system: ACHN renal
[20] = system: K-562 leukemia
[21] = system: NCI/ADR-RES ovarian
[22] = system: SF-539 CNS
[23] = system: SNB-75 CNS
[24] = system: CCRF-CEM leukemia
[25] = system: MCF7 breast
[26] = system: IGROV1 ovarian
[27] = system: SK-OV-3 ovarian
[28] = system: NCI-H226 lung
[29] = system: SF-295 CNS
[30] = system: PC-3 prostate
[31] = system: 786-0 renal
[32] = system: SK-MEL-28 melanoma
[33] = system: MDA-MB-435
[34] = system: SW-620 colon
[35] = system: UO-31 renal
[36] = system: SK-MEL-2 melanoma
[37] = system: SF-268 CNS
[38] = system: T-47D breast
[39] = system: SN12C renal
[40] = system: MOLT-4 leukemia
[41] = system: RXF 393 renal
[42] = system: HCT-116 colon
[43] = system: DU-145 prostate
[44] = system: MDA-MB-231 breast
[45] = system: UACC-62 melanoma
[46] = system: NCI-H522 lung
[47] = system: HL-60(TB) leukemia
[48] = system: HCC-2998 colon
[49] = system: LOX IMVI melanoma
[50] = system: COLO 205 colon
[51] = system: HOP-92 NSCLC
[52] = system: SR leukemia
[53] = system: NCI-H460 lung
[54] = system: HOP-62 NSCLC
[55] = system: HS 578T breast
[56] = system: OVCAR-8 ovarian
[57] = system: UACC-257 melanoma
[58] = system: CAKI-1 renal

Cc1nnc(-c2ccc(C)c(-c3ccc(C(=O)Nc4cccc(C#N)c4)cc3)c2)o1
inactive: GI50 [1] > 25 µM | GI50 [2] > 25 µM | GI50 [3] > 25 µM | GI50 [4] > 25 µM | GI50 [5] > 25 µM | GI50 [6] > 25 µM | GI50 [7] 17.7 µM | GI50 [8] > 25 µM | GI50 [9] > 25 µM | GI50 [10] > 25 µM | GI50 [11] > 25 µM | GI50 [12] > 25 µM | GI50 [13] > 25 µM | GI50 [14] > 25 µM | GI50 [15] > 25 µM | GI50 [16] > 16.2 µM | GI50 [17] > 25 µM | GI50 [18] > 25 µM | GI50 [19] > 25 µM | GI50 [20] > 25 µM | GI50 [21] > 25 µM | GI50 [22] > 25 µM | GI50 [23] > 25 µM | GI50 [24] > 25 µM | GI50 [25] > 25 µM | GI50 [26] > 25 µM | GI50 [27] > 25 µM | GI50 [28] > 10.9 µM | GI50 [29] > 25 µM | GI50 [30] > 25 µM | GI50 [31] > 25 µM | GI50 [32] > 25 µM | GI50 [33] > 25 µM | GI50 [34] > 25 µM | GI50 [35] > 25 µM | GI50 [36] > 25 µM | GI50 [37] > 25 µM | GI50 [38] > 15.9 µM | GI50 [39] > 25 µM | GI50 [40] > 25 µM | GI50 [41] > 25 µM | GI50 [42] > 25 µM | GI50 [43] > 25 µM | GI50 [44] > 25 µM | GI50 [45] > 25 µM | GI50 [46] > 25 µM | GI50 [47] > 25 µM | GI50 [48] > 25 µM | GI50 [49] > 25 µM | GI50 [50] > 25 µM | GI50 [51] > 25 µM | GI50 [52] > 25 µM | GI50 [53] > 25 µM | GI50 [54] > 25 µM | GI50 [55] > 25 µM | GI50 [56] > 25 µM | GI50 [57] > 25 µM | GI50 [58] > 25 µM
> 25 µM: TGI [1] | TGI [2] | TGI [3] | TGI [4] | TGI [5] | TGI [6] | TGI [7] | TGI [8] | TGI [9] | TGI [10] | TGI [11] | TGI [12] | TGI [13] | TGI [14] | TGI [15] | TGI [16] | TGI [17] | TGI [18] | TGI [19] | TGI [20] | TGI [21] | TGI [22] | TGI [23] | TGI [24] | TGI [25] | TGI [26] | TGI [27] | TGI [28] | TGI [29] | TGI [30] | TGI [31] | TGI [32] | TGI [33] | TGI [34] | TGI [35] | TGI [36] | TGI [37] | TGI [38] | TGI [39] | TGI [40] | TGI [41] | TGI [42] | TGI [43] | TGI [44] | TGI [45] | TGI [46] | TGI [47] | TGI [48] | TGI [49] | TGI [50] | TGI [51] | TGI [52] | TGI [53] | TGI [54] | TGI [55] | TGI [56] | TGI [57] | TGI [58]
